Results from patent US8017584B2, “GD3-mimetic peptides” (Otsuka Pharmaceutical Co., Ltd., priority 2000, dated 2011).
Where “and” joins values, the source holds several entries; their conditions need not be identical. Equal entries are not always repeated.

How the values were obtained:
[1] = tested on: T-cell-rich lymphocytes / IL-2-dependent CTLL2 cells; experiment: Cell response test: IL-2 activity (3H thymidine up-take of CTLL2 cells) in supernatant of spleen cells of mice immunized with R4 peptide (R4-KLH); format: cell-based, mouse; conditions: for 3H Thymidine up-take into CTLL2 cells, mean ± SE (4 wells): mice immunized with R4 peptide
Procedure: Using a fusion peptide R4-KLH obtained in Example 3 (4) between GD3R4 and KLH or a MAP form fusion peptide R4MAP-KLH created between GD3R4 and KLH, immunization was performed as described in (1) above.
Briefly, an emulsion mixed with an adjuvant (1:1, by volume) was administered to each member of groups of mice, each group consisting of 3 mice (CD-1), in an amount of 100 μL/mouse (for one administration (ip), peptide 30 μg/mouse) for immunization. In the case of R4-KLH, administration was performed every one week for one month, and subsequently every two weeks for one month; and in the case of R4MAP-KLH, every one week for 2 months. In any case, 4 days after the final immunization, blood was collected to thereby prepare antiserum samples.
(§1) The spleen aseptically removed from each of the above-immunized mice was minced in a 10% FCS-supplemented RPMI 1640 medium. By use of a nylon wool column, T-cell-rich lymphocytes were prepared and the cells were counted. The above medium containing the cells in an amount of 10^5 cells per 150 μL was added to each of the wells of a culture plate. PHA was added so as to attain a final concentration of 1 μg/mL. A peptide of the present invention or any of different gangliosides in PBS was added, and the mixture was incubated for 96 hours. A supernatant (100 μL) was obtained from each well. The IL-2 activity of the supernatant was determined through use of IL-2-dependent mouse cells, CTLL2. Briefly, the supernatant (100 μL) diluted 2 to 50-fold with a medium was added to the wells in an amount of 10^4 CTLL2 cells/well, followed by incubation at 37° C. for 48 hours. Subsequently, 3H-thymidine (0.5 μCi) was added to each well, followed by incubation for 6 hours. CTLL2 cells were recovered on a paper filter and counted for 3H.

GD3 antibody 4F6 = experiment: ELISA of immobilized phage clones with GD3 antibody 4F6 (Example 2); format: binding, mouse; conditions: phage clone immobilized, duplicate lines
Procedure: A 0.1M NaHCO3 solution containing each of the phage clones obtained in Example 1 (10^11, 10^10, or 10^9 titer/100 μL) was added to the wells of a 96-well microtiter plate (product of Nunc), for immobilization of the phage clones at room temperature for one hour. The supernatant was removed, then the wells were subjected to blocking by use of a blocking solution ([…]; TBS containing 1% BSA, 0.1% skim milk, and 0.02% Tween 20; pH 7.5) at 37° C. for four hours.
The supernatant was removed, then GD3 antibody 4F6 (100 μL), serving as a primary antibody, was added to each well for reaction under shaking at room temperature for two hours. After completion of reaction, the supernatant was removed, then the wells were washed six times with a washing solution (400 μL for each well, TBS containing 0.05% Tween 20). Subsequently, a secondary antibody (anti-mouse IgG-HRP, product of Santa Cruz Biotechnology, catalogue No. SC-2031, Lot. No. C089) which was diluted 5,000-fold by use of a blocking solution prepared in advance was added to the wells (100 μL to each well) for reaction under shaking at room temperature for one hour. After completion of reaction, the wells were washed four times with a washing solution (400 μL for each well), then a detection reagent (TMB Microwell; product of KPL, Catalogue No. 50-76-04, Lot. No. WF075) was added to the wells (100 μL to each well), and the mixture was allowed to stand for five minutes at room temperature.
1N-Hydrochloric acid (100 μL) was added to each well for stopping the reaction. Absorbance of each well was measured at 450 nm and 620 nm, and “OD450-OD620” was calculated. A Multiscan (product of Labosystems) was used in measurement of absorbance. A well in which phages had not been immobilized served as a blank, and the absorbance of each well was determined by subtracting the blank value from the “as-measured” value.

[2] = tested on: T-cell-rich lymphocytes / IL-2-dependent CTLL2 cells; experiment: Cell response test: IL-2 activity (3H thymidine up-take of CTLL2 cells) in supernatant of spleen cells of mice immunized with GD3; format: cell-based, mouse; conditions: for 3H Thymidine up-take into CTLL2 cells, mean ± SE (4 wells): mice immunized with GD3
Procedure: Similar to the case of immunization with R4-KLH, antiserum samples were also prepared through immunization with GD3 (30 μg).
as §1

[3] = tested on: binding between GD3 and 4F6; experiment: Inhibition by exogenously added MAPs of binding between GD3 and 4F6 (Example 5(4), FIG. 5); set-up: species or system mouse
Procedure: (4) Next, investigation was made as to whether binding between GD3R3 or GD3R4 and 4F6 occurred at the GD3 binding site of 4F6. To the wells of a plate to which GD3 had been immobilized (100 ng/well), each of the MAP samples having a variety of concentrations shown on the X-axis in FIG. 5 and 4F6 (100 μL/well) were simultaneously added, whereby an inhibitory test was performed. The test was performed in triplicate, and the values in the graph are “mean ±SD.”

[4] = tested on: binding between GD3 and 4F6 (anti-GD3 antibody); experiment: Inhibition by immobilized MAPs of binding between GD3 and 4F6 (Example 5(3), FIG. 4); set-up: species or system mouse; conditions: immobilized MAP or GD3 absorbs 4F6
Procedure: (3) The binding affinity shown in FIG. 3 was investigated in another method. Briefly, MAP samples having a variety of concentrations shown on the X-axis in FIG. 4 were provided. Each sample was immobilized onto the wells of a 96-well plate, and the wells were allowed to react with 4F6 (100 μL/well) at 4° C. overnight. On the following day, the supernatant (80 μL) was collected and added to the wells of another plate to which GD3 had been immobilized in advance (100 ng/well) for reaction at room temperature for 2 hours. After completion of reaction, the amount of antibody 4F6 that had been condensed with GD3 (i.e., that had not been absorbed by MAP) was detected and quantitatively determined through the method described (2) above, whereby inhibitory effect of MAP on binding of GD3 to 4F6 was investigated. The test was performed in triplicate, and the values in the graph are “mean ±SD.”

[5] = stimulant 1 μg/ml, supernatant dilution 1/20
[6] = stimulant 1 μg/ml, supernatant dilution 1/50
[7] = stimulant 1 μg/ml, supernatant dilution ½
[8] = stimulant 1 μg/ml, supernatant dilution ⅕
[9] = stimulant 2 μg/ml, supernatant dilution 1/20
[10] = stimulant 2 μg/ml, supernatant dilution 1/50
[11] = stimulant 2 μg/ml, supernatant dilution ½
[12] = stimulant 2 μg/ml, supernatant dilution ⅕
[13] = stimulant 5 μg/ml, supernatant dilution 1/20
[14] = stimulant 5 μg/ml, supernatant dilution 1/50
[15] = stimulant 5 μg/ml, supernatant dilution ½
[16] = stimulant 5 μg/ml, supernatant dilution ⅕

Row | Sequence | 3H Thymidine up-take into CTLL2 cells, mean ± SE (4 wells) [1, 5] | 3H Thymidine up-take into CTLL2 cells, mean ± SE (4 wells) [1, 6] | 3H Thymidine up-take into CTLL2 cells, mean ± SE (4 wells) [1, 7] | 3H Thymidine up-take into CTLL2 cells, mean ± SE (4 wells) [1, 8] | 3H Thymidine up-take into CTLL2 cells, mean ± SE (4 wells) [1, 9] | 3H Thymidine up-take into CTLL2 cells, mean ± SE (4 wells) [1, 10] | 3H Thymidine up-take into CTLL2 cells, mean ± SE (4 wells) [1, 11] | 3H Thymidine up-take into CTLL2 cells, mean ± SE (4 wells) [1, 12] | 3H Thymidine up-take into CTLL2 cells, mean ± SE (4 wells) [1, 13] | 3H Thymidine up-take into CTLL2 cells, mean ± SE (4 wells) [1, 14] | 3H Thymidine up-take into CTLL2 cells, mean ± SE (4 wells) [1, 15] | 3H Thymidine up-take into CTLL2 cells, mean ± SE (4 wells) [1, 16] | absorbance OD450-OD620, binding to GD3 antibody 4F6 (GD3 antibody 4F6; 10^9 titer/well) | 3H Thymidine up-take into CTLL2 cells, mean ± SE (4 wells) [2, 5] | 3H Thymidine up-take into CTLL2 cells, mean ± SE (4 wells) [2, 6] | 3H Thymidine up-take into CTLL2 cells, mean ± SE (4 wells) [2, 7] | 3H Thymidine up-take into CTLL2 cells, mean ± SE (4 wells) [2, 8] | 3H Thymidine up-take into CTLL2 cells, mean ± SE (4 wells) [2, 9] | 3H Thymidine up-take into CTLL2 cells, mean ± SE (4 wells) [2, 10] | 3H Thymidine up-take into CTLL2 cells, mean ± SE (4 wells) [2, 11] | further results
1 | PHFDSLLYPCELLGC (PHFDSLLYPCQLLGC) [GD3R2, tested as phage clone, MAP form or peptide] | 745 ± 136 | 178 ± 38 | 2857 ± 493 | 1714 ± 239 | 694 ± 141 | 163 ± 41 | 2764 ± 322 | 1653 ± 286 | 748 ± 162 | 174 ± 32 | 2849 ± 396 | 1628 ± 245 | 0.055 and 0.034 | 792 ± 88 | 185 ± 31 | 2957 ± 326 | 1784 ± 164 | 856 ± 107 | 192 ± 40 | 3057 ± 321 | absorbance OD450-OD620, binding to GD3 antibody 4F6 (GD3 antibody 4F6; 10^10 titer/well): 0.128 and 0.109; 3H Thymidine up-take into CTLL2 cells, mean ± SE (4 wells) [2, 12]: 1719 ± 184; 3H Thymidine up-take into CTLL2 cells, mean ± SE (4 wells) [2, 13]: 931 ± 124; 3H Thymidine up-take into CTLL2 cells, mean ± SE (4 wells) [2, 14]: 203 ± 36; 3H Thymidine up-take into CTLL2 cells, mean ± SE (4 wells) [2, 15]: 3022 ± 316; 3H Thymidine up-take into CTLL2 cells, mean ± SE (4 wells) [2, 16]: 1717 ± 198
2 | GLAPPDYAERFELLS [GD3R3, tested as phage clone, MAP form or peptide] | 1491 ± 364 | 682 ± 120 | 5577 ± 1063 | 2986 ± 327 | 1527 ± 337 | 736 ± 137 | 6351 ± 1314 | 3184 ± 439 | 1684 ± 375 | 812 ± 151 | 7898 ± 1496 | 3652 ± 681 | 0.05 and 0.086 | 1153 ± 246 | 571 ± 104 | 4066 ± 853 | 2654 ± 486 | 1540 ± 467 | 749 ± 118 | 5791 ± 1154 | activation of T cells ([1]; R4-KLH-immunized mice): T cells have been confirmed to have activated; inhibitory effect of exogenously added sample on binding between GD3 and 4F6 (words, FIG. 5) ([3]; added simultaneously with 4F6 to GD3 100 ng/well): exhibited inhibitory effect; order of binding strength to 4F6 ([3]; deduced from FIG. 5): GD3>GD3R3>GD3R4; binding to anti-GD3 antibody 4F6, overall conclusion ([3]; taken together, Example 5): the strongest in binding; absorbance OD450-OD620, binding to GD3 antibody 4F6 (GD3 antibody 4F6; 10^11 titer/well): 0.094 and 0.108; IL-2 production by T-cell-rich lymphocytes ([2]; lymphocytes from GD3-immunized mouse): production of IL-2 has been confirmed; 3H Thymidine up-take into CTLL2 cells, mean ± SE (4 wells) [2, 12]: 3243 ± 634; 3H Thymidine up-take into CTLL2 cells, mean ± SE (4 wells) [2, 13]: 1566 ± 328; 3H Thymidine up-take into CTLL2 cells, mean ± SE (4 wells) [2, 14]: 761 ± 102; 3H Thymidine up-take into CTLL2 cells, mean ± SE (4 wells) [2, 15]: 7536 ± 1247; 3H Thymidine up-take into CTLL2 cells, mean ± SE (4 wells) [2, 16]: 3528 ± 543; inhibition of GD3 binding to 4F6 by immobilized sample (words, FIG. 4) [4]: inhibit GD3 from binding to the antibody
3 | LAPPRPRSELVFLSV (LAPPRPRSQLVFLSV) [GD3R1, tested as phage clone, MAP form or peptide] | 949 ± 136 | 225 ± 38 | 3218 ± 716 | 1876 ± 281 | 845 ± 147 | 220 ± 40 | 3417 ± 542 | 1864 ± 327 | 901 ± 152 | 236 ± 45 | 3469 ± 612 | 1781 ± 285 | 0.017 and 0.026 | 888 ± 107 | 234 ± 43 | 3014 ± 671 | 1967 ± 276 | 906 ± 121 | 246 ± 38 | 3219 ± 546 | absorbance OD450-OD620, binding to GD3 antibody 4F6 (GD3 antibody 4F6; 10^10 titer/well): 0.067 and 0.055; absorbance OD450-OD620, binding to GD3 antibody 4F6 (GD3 antibody 4F6; 10^11 titer/well): 0.094 and 0.086; 3H Thymidine up-take into CTLL2 cells, mean ± SE (4 wells) [2, 12]: 1831 ± 259; 3H Thymidine up-take into CTLL2 cells, mean ± SE (4 wells) [2, 13]: 942 ± 116; 3H Thymidine up-take into CTLL2 cells, mean ± SE (4 wells) [2, 14]: 251 ± 44; 3H Thymidine up-take into CTLL2 cells, mean ± SE (4 wells) [2, 15]: 3344 ± 497; 3H Thymidine up-take into CTLL2 cells, mean ± SE (4 wells) [2, 16]: 1956 ± 285
